From ChEMBL document CHEMBL1201862, “PubChem BioAssay data set” (2004)
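96-well plates; 48 h exposure; 5 concentrations. Endpoints by linear interpolation between flanking doses. Not reached: highest tested concentration assigned. GI50: concentration for 50% inhibition of growth.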 Calls of active or inactive are those of the source. Rule as the data show it: active = GI50 up to about 1.1 µM and inactive = higher.

Experiments:
Assay in all cases: inhibition of tumour cell growth, NCI panel, 48 h
CCRF-CEM = tested on: CCRF-CEM
OVCAR-3 = tested on: OVCAR-3
Hs-578T = tested on: Hs-578T
UO-31 = tested on: UO-31
MDA-N = tested on: MDA-N
HOP-62 = tested on: HOP-62
SK-MEL-5 = tested on: SK-MEL-5
PC-3 = tested on: PC-3
SNB-75 = tested on: SNB-75
A498 = tested on: A498
SK-OV-3 = tested on: SK-OV-3
SK-MEL-2 = tested on: SK-MEL-2
OVCAR-5 = tested on: OVCAR-5
IGROV-1 = tested on: IGROV-1
MDA-MB-231 = tested on: MDA-MB-231
U-251 = tested on: U-251
OVCAR-8 = tested on: OVCAR-8
SW-620 = tested on: SW-620
T47D = tested on: T47D
HL-60 = tested on: HL-60

Row | Structure (SMILES) | GI50 (CCRF-CEM) | GI50 (OVCAR-3) | GI50 (Hs-578T) | GI50 (UO-31) | GI50 (MDA-N) | GI50 (HOP-62) | GI50 (SK-MEL-5) | GI50 (PC-3) | GI50 (SNB-75) | GI50 (A498) | GI50 (SK-OV-3) | GI50 (SK-MEL-2) | GI50 (OVCAR-5) | GI50 (IGROV-1) | GI50 (MDA-MB-231) | GI50 (U-251) | GI50 (OVCAR-8) | GI50 (SW-620) | GI50 (T47D) | GI50 (HL-60)
1 | O=C1c2c(Br)sc(Br)c2[C@H]2OC(=S)N[C@@H]12 | 0.624 µM (active) | 2.6 µM (inactive) | 11.8 µM (inactive) | 1.75 µM (inactive) | 5.04 µM (inactive) | 13.5 µM (inactive) | 11 µM (inactive) | 4.07 µM (inactive) | 16.1 µM (inactive) | 18.3 µM (inactive) | 15.7 µM (inactive) | 13.6 µM (inactive) | 17.1 µM (inactive) | 10.1 µM (inactive) | 12.1 µM (inactive) | 2.78 µM (inactive) | 3.5 µM (inactive) | 2.43 µM (inactive) | 12.1 µM (inactive) | –
2 | CC(C)OC(=O)Nc1cccc(Cl)c1 [CHLORPROPHAM] | > 100 µM (inactive) | > 100 µM (inactive) | > 100 µM (inactive) | > 100 µM (inactive) | > 100 µM (inactive) | > 100 µM (inactive) | > 100 µM (inactive) | 94.4 µM (inactive) | 40.7 µM (inactive) | – | > 100 µM (inactive) | > 100 µM (inactive) | > 100 µM (inactive) | > 100 µM (inactive) | > 100 µM (inactive) | 87.1 µM (inactive) | > 100 µM (inactive) | > 100 µM (inactive) | 50.4 µM (inactive) | > 100 µM (inactive)
3 | Nc1ccc(S(=O)(=O)Nc2nc3ccccc3nc2N2CCCCC2)cc1 | 48.5 µM (inactive) | > 100 µM (inactive) | > 100 µM (inactive) | 11.3 µM (inactive) | > 100 µM (inactive) | > 100 µM (inactive) | 91 µM (inactive) | 59.3 µM (inactive) | 24.3 µM (inactive) | – | > 100 µM (inactive) | 88.1 µM (inactive) | > 100 µM (inactive) | 80.9 µM (inactive) | > 100 µM (inactive) | 68.2 µM (inactive) | 61.8 µM (inactive) | 59 µM (inactive) | 41.6 µM (inactive) | 46.3 µM (inactive)
4 | Cc1c(Cl)ccc2c1NC(=O)C2(O)CC(=O)c1ccc(Cl)cc1Cl (stereo unspecified) | 10.3 µM (inactive) | > 46.7 µM (inactive) | 12.9 µM (inactive) | > 50 µM (inactive) | > 50 µM (inactive) | 19.2 µM (inactive) | > 50 µM (inactive) | > 50 µM (inactive) | 12.8 µM (inactive) | 16.2 µM (inactive) | > 45.9 µM (inactive) | > 50 µM (inactive) | > 50 µM (inactive) | > 50 µM (inactive) | 30.5 µM (inactive) | 22.6 µM (inactive) | > 50 µM (inactive) | > 50 µM (inactive) | > 50 µM (inactive) | –
5 | CC1Cc2c(Br)nc(N)nc2NC1=O (stereo unspecified) | – | > 100 µM (inactive) | > 100 µM (inactive) | > 100 µM (inactive) | > 100 µM (inactive) | > 100 µM (inactive) | > 100 µM (inactive) | > 100 µM (inactive) | > 100 µM (inactive) | > 100 µM (inactive) | > 100 µM (inactive) | > 100 µM (inactive) | > 100 µM (inactive) | > 100 µM (inactive) | > 100 µM (inactive) | > 100 µM (inactive) | > 100 µM (inactive) | > 100 µM (inactive) | > 100 µM (inactive) | –
6 | O=C(O)c1c(Cl)c(Cl)c(Cl)c(Cl)c1C(=O)Nc1ccc2cn[nH]c2c1 | – | 65.2 µM (inactive) | 39.7 µM (inactive) | > 100 µM (inactive) | > 100 µM (inactive) | 59.6 µM (inactive) | > 100 µM (inactive) | > 100 µM (inactive) | 74.8 µM (inactive) | > 100 µM (inactive) | > 100 µM (inactive) | > 100 µM (inactive) | > 100 µM (inactive) | > 100 µM (inactive) | > 100 µM (inactive) | > 100 µM (inactive) | > 100 µM (inactive) | > 100 µM (inactive) | 74.3 µM (inactive) | –
7 | C[C@H](CCC(=O)NN)[C@H]1CC[C@H]2[C@@H]3CC[C@@H]4C[C@H](O)CC[C@]4(C)[C@H]3CC[C@]12C | 12.3 µM (inactive) | 32 µM (inactive) | > 100 µM (inactive) | 51.9 µM (inactive) | 75.7 µM (inactive) | > 100 µM (inactive) | 23.4 µM (inactive) | 44.8 µM (inactive) | – | 79.3 µM (inactive) | > 100 µM (inactive) | > 88.5 µM (inactive) | > 88.3 µM (inactive) | 83.4 µM (inactive) | 40.8 µM (inactive) | > 73.5 µM (inactive) | 37.2 µM (inactive) | 71.8 µM (inactive) | 24.8 µM (inactive) | 8.53 µM (inactive)
